According to article PMC12136037, “Type II kinase inhibitors that target Parkinson’s disease–associated LRRK2” (Science Advances, 2025):

How the values were obtained:
Assay in all cases: DSF 100 kinase selectivity screen;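 for dTm: compound tested at 20 µM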
Format in all cases: binding
[1] = biological target: T1, ~100 representative kinases (Homo sapiens, UniProt P54762); details: Protein EPHB1; average of three replicates
T1 construct: Recombinant protein kinase domains with a concentration of 2 μM
T1 sequence (P54762 18-984): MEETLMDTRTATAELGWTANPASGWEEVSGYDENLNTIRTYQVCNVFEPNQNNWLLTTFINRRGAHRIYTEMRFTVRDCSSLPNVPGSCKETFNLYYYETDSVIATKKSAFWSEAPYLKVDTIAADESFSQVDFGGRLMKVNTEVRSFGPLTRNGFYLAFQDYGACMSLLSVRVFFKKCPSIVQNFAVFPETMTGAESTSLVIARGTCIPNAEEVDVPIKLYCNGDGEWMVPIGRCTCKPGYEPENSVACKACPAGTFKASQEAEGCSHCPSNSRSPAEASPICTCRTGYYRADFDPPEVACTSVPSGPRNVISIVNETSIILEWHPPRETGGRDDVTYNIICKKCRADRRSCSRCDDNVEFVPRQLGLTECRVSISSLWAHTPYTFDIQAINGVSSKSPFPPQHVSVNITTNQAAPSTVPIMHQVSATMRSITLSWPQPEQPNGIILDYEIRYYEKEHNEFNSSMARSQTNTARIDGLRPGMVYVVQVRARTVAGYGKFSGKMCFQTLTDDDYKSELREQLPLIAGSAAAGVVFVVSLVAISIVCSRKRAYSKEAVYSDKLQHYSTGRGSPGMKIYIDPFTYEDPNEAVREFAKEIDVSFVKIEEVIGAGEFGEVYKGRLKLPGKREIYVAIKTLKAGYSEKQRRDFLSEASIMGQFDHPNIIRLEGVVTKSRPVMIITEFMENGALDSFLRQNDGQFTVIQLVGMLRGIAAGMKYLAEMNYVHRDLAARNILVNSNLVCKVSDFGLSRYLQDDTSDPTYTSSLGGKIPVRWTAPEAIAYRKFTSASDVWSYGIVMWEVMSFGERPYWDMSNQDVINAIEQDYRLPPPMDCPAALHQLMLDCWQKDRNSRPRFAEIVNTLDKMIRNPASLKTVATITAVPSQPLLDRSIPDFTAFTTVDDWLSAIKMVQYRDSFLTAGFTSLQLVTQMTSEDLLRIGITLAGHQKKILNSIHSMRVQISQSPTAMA
Method in brief: (§1)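 Each kinase domain, at 2 μM, is mixed with 20 μM test compound and SYPRO Orange in Hepes (20 mM, pH 7.5) with 500 mM NaCl. Temperature is then raised at 3°C/min and fluorescence-monitored unfolding yields the melting temperature change, ΔTm in degrees Celsius.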

[2] = biological target: T2, ~100 representative kinases (Homo sapiens, UniProt Q15375); details: Protein EPHA7; average of three replicates
T2 construct: Recombinant protein kinase domains with a concentration of 2 μM
T2 sequence (Q15375 28-998): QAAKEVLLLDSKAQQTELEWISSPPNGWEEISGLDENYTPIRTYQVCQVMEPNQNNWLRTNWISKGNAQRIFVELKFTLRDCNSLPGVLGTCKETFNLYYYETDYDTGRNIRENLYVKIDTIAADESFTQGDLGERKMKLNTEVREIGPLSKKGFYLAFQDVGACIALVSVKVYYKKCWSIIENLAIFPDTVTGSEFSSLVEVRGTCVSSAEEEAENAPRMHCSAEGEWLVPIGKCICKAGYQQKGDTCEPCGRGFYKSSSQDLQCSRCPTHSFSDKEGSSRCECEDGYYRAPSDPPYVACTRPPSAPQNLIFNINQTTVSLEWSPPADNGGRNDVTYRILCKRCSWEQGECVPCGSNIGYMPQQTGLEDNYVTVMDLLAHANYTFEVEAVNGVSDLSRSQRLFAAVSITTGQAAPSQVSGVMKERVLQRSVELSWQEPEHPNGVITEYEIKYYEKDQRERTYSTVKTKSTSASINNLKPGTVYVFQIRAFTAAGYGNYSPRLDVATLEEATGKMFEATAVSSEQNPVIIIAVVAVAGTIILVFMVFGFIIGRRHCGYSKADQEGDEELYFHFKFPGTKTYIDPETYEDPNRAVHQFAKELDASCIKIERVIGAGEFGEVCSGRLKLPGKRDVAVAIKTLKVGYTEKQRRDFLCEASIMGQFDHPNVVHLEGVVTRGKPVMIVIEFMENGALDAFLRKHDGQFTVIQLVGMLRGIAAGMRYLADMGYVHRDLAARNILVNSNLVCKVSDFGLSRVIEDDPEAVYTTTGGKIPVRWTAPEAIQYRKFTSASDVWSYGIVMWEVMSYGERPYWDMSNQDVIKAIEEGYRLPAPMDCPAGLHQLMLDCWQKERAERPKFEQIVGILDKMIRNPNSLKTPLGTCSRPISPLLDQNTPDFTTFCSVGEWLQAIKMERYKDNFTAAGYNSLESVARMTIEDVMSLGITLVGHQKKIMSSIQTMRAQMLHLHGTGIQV
Method in brief: as §1

[3] = system: ~100 representative kinases; details: for S (5 K) / share of screened kinases stabilized: DSF selectivity panel, thermal shift >5 K; for dTm: Protein BRD, average of three replicates; for # >5K: number of proteins of the DSF panel with dTm >5K
Method in brief: as §1

[4] = biological target: T3, ~100 representative kinases (Homo sapiens, UniProt Q96NX5); details: Protein CAMK1G; average of three replicates
T3 construct: Recombinant protein kinase domains with a concentration of 2 μM
T3 sequence (Q96NX5 whole entry, the tested form may be a part): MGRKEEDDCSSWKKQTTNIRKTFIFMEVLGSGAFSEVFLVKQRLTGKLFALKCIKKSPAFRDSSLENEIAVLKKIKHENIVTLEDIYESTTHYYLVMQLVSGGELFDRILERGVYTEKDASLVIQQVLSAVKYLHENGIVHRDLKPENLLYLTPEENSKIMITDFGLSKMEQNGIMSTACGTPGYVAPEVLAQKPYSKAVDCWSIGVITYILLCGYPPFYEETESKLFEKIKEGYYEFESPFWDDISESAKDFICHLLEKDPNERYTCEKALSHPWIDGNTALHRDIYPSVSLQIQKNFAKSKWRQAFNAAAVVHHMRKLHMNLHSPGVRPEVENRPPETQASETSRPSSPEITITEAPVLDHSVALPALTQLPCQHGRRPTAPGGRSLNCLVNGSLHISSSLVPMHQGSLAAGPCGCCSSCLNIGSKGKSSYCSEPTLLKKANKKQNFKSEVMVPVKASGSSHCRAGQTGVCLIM
Method in brief: as §1

[5] = biological target: T4, ~100 representative kinases (Homo sapiens, UniProt P33981); details: Protein TTK; DSF; average of three replicates
T4 construct: Recombinant protein kinase domains with a concentration of 2 μM
T4 sequence (P33981 1-857): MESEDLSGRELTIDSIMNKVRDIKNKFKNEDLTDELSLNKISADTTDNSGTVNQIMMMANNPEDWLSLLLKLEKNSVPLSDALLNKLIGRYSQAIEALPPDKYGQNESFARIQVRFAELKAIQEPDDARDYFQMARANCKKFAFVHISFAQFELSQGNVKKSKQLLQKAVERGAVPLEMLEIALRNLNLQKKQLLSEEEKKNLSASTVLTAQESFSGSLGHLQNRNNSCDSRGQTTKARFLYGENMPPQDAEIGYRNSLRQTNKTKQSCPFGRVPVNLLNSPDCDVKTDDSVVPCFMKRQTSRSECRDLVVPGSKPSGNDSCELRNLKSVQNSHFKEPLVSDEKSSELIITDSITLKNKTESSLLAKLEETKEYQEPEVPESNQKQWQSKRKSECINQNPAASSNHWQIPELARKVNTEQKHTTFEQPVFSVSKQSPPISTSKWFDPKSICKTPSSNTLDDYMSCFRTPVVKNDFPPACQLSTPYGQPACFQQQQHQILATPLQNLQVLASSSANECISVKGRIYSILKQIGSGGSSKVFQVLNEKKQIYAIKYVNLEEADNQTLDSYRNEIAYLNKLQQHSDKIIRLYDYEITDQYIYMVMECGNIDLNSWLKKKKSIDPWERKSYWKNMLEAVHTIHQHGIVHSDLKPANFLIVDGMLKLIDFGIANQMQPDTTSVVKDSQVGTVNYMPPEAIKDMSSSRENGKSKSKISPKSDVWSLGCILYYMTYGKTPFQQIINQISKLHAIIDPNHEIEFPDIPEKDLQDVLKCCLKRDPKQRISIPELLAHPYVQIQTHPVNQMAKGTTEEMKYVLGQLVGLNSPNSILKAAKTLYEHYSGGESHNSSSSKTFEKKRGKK
Method in brief: as §1

[6] = biological target: T5, ~100 representative kinases (Homo sapiens, UniProt O15264); details: protein MAPK13; average of three replicates
T5 construct: Recombinant protein kinase domains with a concentration of 2 μM
T5 sequence (O15264 1-365): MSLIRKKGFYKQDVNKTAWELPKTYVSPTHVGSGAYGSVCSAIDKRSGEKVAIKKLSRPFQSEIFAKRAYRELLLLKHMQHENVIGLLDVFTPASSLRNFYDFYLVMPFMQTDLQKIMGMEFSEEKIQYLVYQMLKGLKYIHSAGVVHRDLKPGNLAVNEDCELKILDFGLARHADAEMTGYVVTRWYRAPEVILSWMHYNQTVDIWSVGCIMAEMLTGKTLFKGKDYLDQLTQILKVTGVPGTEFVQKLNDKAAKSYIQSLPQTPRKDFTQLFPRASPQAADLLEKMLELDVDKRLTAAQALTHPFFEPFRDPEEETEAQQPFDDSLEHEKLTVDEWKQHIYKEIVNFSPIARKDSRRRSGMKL
Method in brief: as §1

[7] = number of kinases with thermal shift >5 K divided by total number of kinases screened
[8] = selectivity score: # >5K divided by # of proteins tested in the DSF panel

Row | Compound | dTm [1] [K] | dTm [2] [K] | S (5 K) / share of screened kinases stabilized [3] [%] | dTm [3] [K] | S(5K) [3, 7] | # >5K [3] | S(5K) [3, 8] | dTm [4] [K] | dTm [5] [K] | dTm [6] [K]
1 | Cc1ccc(-n2nc(C(C)(C)C)cc2NC(=O)Nc2cccc(-c3c[nH]c4nc(Cl)nc(N5CCOCC5)c34)c2)cc1 [Compound 30] | -0.80 | 0.22 | 10 | -1.65 | 0.10 | 10 | 0.099 | -0.26 | 2.15 | 9.71
2 | C[C@@H]1CN(c2cc(-c3n[nH]c4ccc(OC5(C)CC5)cc34)ncn2)C[C@H](C)O1 [MLi2] | -0.37 | 0.12 | – | 0.12 | – | 2 | 0.019 | 3.50 | 5.63 | 0.32
3 | O=C(Nc1cccc(-c2c[nH]c3ncnc(N4CCOCC4)c23)c1)C1(C(=O)Nc2ccc(F)c(F)c2)CC1 [Compound 17] | 2.50 | -1.27 | – | 0.26 | 0.32 | 32 | 0.320 | 2.10 | 6.18 | 9.50
4 | CC(C)(C)c1cc(NC(=O)Nc2cccc(-c3c[nH]c4ncnc(N5CCOCC5)c34)c2)n(-c2ccc3ncccc3c2)n1 [Compound 28] | 11.35 | 1.92 | 49 | -0.0106 | 0.49 | 49 | 0.490 | 6.01 | 7.28 | 16.99
5 | COc1cc(C(=O)N2CCOCC2)c(F)cc1Nc1nc(N(C)C)c2c(Cl)c[nH]c2n1 [Compound 36] | -0.27 | 2.27 | – | -0.29 | 0.14 | 14 | 0.139 | 4.24 | 10.39 | 0.85
